Measurements from PMC9475448, “What a difference a methylene makes: replacing Glu with Asp or Aad in the Lys-urea-Glu pharmacophore of PSMA-targeting radioligands to reduce kidney and salivary gland uptake” (Theranostics, 2022).

Tested on: LNCaP tumor-bearing mice
Test: Ex vivo biodistribution of 177Lu-labeled ligands in LNCaP tumor-bearing NRG mice
[1] = 1 h post-injection, listed as [177Lu]Lu-PSMA-617
[2] = 4 h post-injection, listed as [177Lu]Lu-PSMA-617

## [^177Lu]Lu-PSMA-617
1 h post-injection
  Adrenal glands uptake: 3.025 ± 0.939 %IA/g
  Blood uptake: 0.750 ± 0.119 %IA/g
  Blood:Salivary gland uptake ratio: < 1.0
  Bone uptake: 0.118 ± 0.026 %IA/g
  Brain uptake: 0.028 ± 0.007 %IA/g
  Fat uptake: 0.327 ± 0.069 %IA/g
  Heart uptake: 0.294 ± 0.045 %IA/g
  Intestines uptake: 0.275 ± 0.032 %IA/g
  Kidneys uptake: 79.7±11.7 %IA/g
  Lacrimal glands uptake: 0.068 ± 0.022 %IA/g
  Liver uptake: 0.224 ± 0.030 %IA/g
  Lungs uptake: 1.377 ± 0.152 %IA/g
  Muscle uptake: 0.177 ± 0.032 %IA/g
  Pancreas uptake: 0.387 ± 0.074 %IA/g
  Salivary glands uptake: 1.78±0.38 %IA/g
  Spleen uptake: 3.666 ± 1.342 %IA/g
  Stomach uptake: 0.130 ± 0.054 %IA/g
  Testes uptake: 0.433 ± 0.068 %IA/g
  Thyroid uptake: 0.556 ± 0.073 %IA/g
  Tumor uptake: 16.5±2.46 %IA/g
  Tumor:Blood uptake ratio: 22.5 ± 4.07
  Tumor:Kidney uptake ratio: 0.21 ± 0.04
  Tumor:Muscle uptake ratio: 94.3 ± 12.8
  Tumor:Salivary gland uptake ratio: 9.81 ± 3.33
[1]
  Blood:Salivary gland uptake ratio: 0.44 ± 0.12
  Kidneys uptake: 79.67 ± 11.68 %IA/g
  Salivary glands uptake: 1.775 ± 0.381 %IA/g
  Tumor uptake: 16.48 ± 2.456 %IA/g
4 h post-injection
  Adrenal glands uptake: 0.469 ± 0.527 %IA/g
  Blood uptake: 0.031 ± 0.017 %IA/g
  Blood:Salivary gland uptake ratio: 0.20 ± 0.06
  Bone uptake: 0.017 ± 0.007 %IA/g
  Brain uptake: 0.011 ± 0.001 %IA/g
  Fat uptake: 0.028 ± 0.011 %IA/g
  Heart uptake: 0.026 ± 0.006 %IA/g
  Intestines uptake: 0.135 ± 0.042 %IA/g
  Kidneys uptake: 13.1±9.60 %IA/g
  Lacrimal glands uptake: 0.079 ± 0.056 %IA/g
  Liver uptake: 0.056 ± 0.012 %IA/g
  Lungs uptake: 0.123 ± 0.052 %IA/g
  Muscle uptake: 0.020 ± 0.004 %IA/g
  Pancreas uptake: 0.031 ± 0.012 %IA/g
  Salivary glands uptake: 0.14±0.04 %IA/g
  Spleen uptake: 0.222 ± 0.117 %IA/g
  Stomach uptake: 0.029 ± 0.017 %IA/g
  Testes uptake: 0.055 ± 0.018 %IA/g
  Thyroid uptake: 0.065 ± 0.027 %IA/g
  Tumor uptake: 14.24 ± 1.804 %IA/g
  Tumor:Blood uptake ratio: 593 ± 338
  Tumor:Kidney uptake ratio: 1.58 ± 0.98
  Tumor:Muscle uptake ratio: 748 ± 180
  Tumor:Salivary gland uptake ratio: 105 ± 28.0
[2]
  Kidneys uptake: 13.06 ± 9.598 %IA/g
  Salivary glands uptake: 0.142 ± 0.039 %IA/g
24 h post-injection
  Adrenal glands uptake: 0.032 ± 0.010 %IA/g
  Blood uptake: 0.004 ± 0.001 %IA/g
  Blood:Salivary gland uptake ratio: 0.10 ± 0.02
  Bone uptake: 0.009 ± 0.005 %IA/g
  Brain uptake: 0.010 ± 0.002 %IA/g
  Fat uptake: 0.009 ± 0.008 %IA/g
  Heart uptake: 0.009 ± 0.003 %IA/g
  Intestines uptake: 0.059 ± 0.039 %IA/g
  Kidneys uptake: 0.658 ± 0.159 %IA/g
  Lacrimal glands uptake: 0.050 ± 0.024 %IA/g
  Liver uptake: 0.043 ± 0.027 %IA/g
  Lungs uptake: 0.028 ± 0.005 %IA/g
  Muscle uptake: 0.005 ± 0.001 %IA/g
  Pancreas uptake: 0.008 ± 0.002 %IA/g
  Salivary glands uptake: 0.018 ± 0.003 %IA/g
  Spleen uptake: 0.039 ± 0.007 %IA/g
  Stomach uptake: 0.044 ± 0.011 %IA/g
  Testes uptake: 0.018 ± 0.003 %IA/g
